Laboratory results reported in patent US20090143285A1, “TARGET PROTEIN AND TARGET GENE FOR DRUG DISCOVERY AND SCREENING METHOD” (REVERSE PROTEOMICS RESEARCH INSTITUTE CO., LTD., priority 2005, published 2009).
“Also recorded” adds a separate entry of the source. Like-named read-outs stand apart in the source and are kept apart here.

Columns and labels:
[1] = target: T1, FLJ41991-derived protein (Homo sapiens, UniProt P57764, E293G); assay: SEC/MS interaction analysis, FLJ41991-derived protein (GSDMDC1); format: binding
T1 construct: His-tag (N); made in house; host or cells: Escherichia coli BL21star(DE3)pLysS (pDEST17)
T1 sequence (P57764 265-484 E293G): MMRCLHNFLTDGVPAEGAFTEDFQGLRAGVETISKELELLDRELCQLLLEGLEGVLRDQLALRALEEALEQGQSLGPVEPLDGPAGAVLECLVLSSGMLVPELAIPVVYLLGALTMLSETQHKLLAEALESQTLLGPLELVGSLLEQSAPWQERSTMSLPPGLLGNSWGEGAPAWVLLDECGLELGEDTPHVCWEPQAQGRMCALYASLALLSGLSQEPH
Text: (§1) To analyze the interactions between commonly used drugs and proteins expressed from human full-length cDNA clones while keeping both the proteins and the compounds in non-modified, non-immobilized state, size exclusion chromatography (SEC) and mass analysis were used in combination. The specific procedures are shown below.
(§2) The compound-protein mixture prepared in step 1 was subjected to chromatography using an SEC column, the compound and the protein were separated by SEC, and the compound that interacted with the bound compound or protein contained in the protein fraction was analyzed using a mass analyzer.
(§3) Protein concentrations were measured using BCA Protein Assay (PIERCE), in consideration of the purity calculated by SDS-PAGE.
(§4) Mass analysis was performed using LCQ DECA XP (Thermoelectron) or Q-TOF micro (Micromass), equipped with an ESI probe. The LC pump used was Agilent 1100 (Yokogawa Analytical Systems), and the autosampler used was HTC-PAL (CTC Analytics) equipped with a cooling stacker. The SEC column used was a micro-LC column or a 384-well spin column. […]
(§5) In the 384-well spin column method, Unifilter 100 (Whatman), packed with 10 μL (dry volume) of Bio-Gel P6 (BIO-RAD) and swollen with milliQ water, was used as the SEC column. […] The SEC spin column was mounted on an acetonitrile-aliquoted 384-well U-bottom plate and centrifuged; the SEC spin column filtrate, which is a protein fraction, was recovered in 50% acetonitrile. The protein precipitate produced by the acetonitrile was removed via centrifugation and filtration for deproteinization; the resulting filtrate was concentrated by centrifugal concentration and re-dissolved in 10 μL of 50% methanol to obtain a mass analysis sample. The mobile phase supplied to the mass analyzer was 0.1% formic acid/50% methanol solution in the positive ion mode, and 0.1% ammonia/50% methanol solution in the negative ion mode; these mobile phases were used at a flow rate of 40 μL/min. 2-μL of mass analysis samples were injected using an autosampler at 2-minute intervals; the mass spectral intensity of the compound was measured to retrieve the spectral intensity of the pharmaceutical compound contained in the SEC spin column filtrate (protein fraction eluted from SEC).

[2] = test system: FLJXXXXX-derived proteins; assay: SEC/MS spin column interaction analysis of FLJXXXXX-derived proteins and various compounds (Tables 30-1 to 30-4); format: binding, human
[3] = target: T2, FLJ10420-derived protein (Homo sapiens, UniProt Q9NVZ3, T157A); assay: SEC/MS interaction analysis, FLJ10420-derived protein (hypothetical protein FLJ10420); format: binding
T2 construct: His-tag (N); made in house; host or cells: Escherichia coli BL21star(DE3)pLysS
T2 sequence (Q9NVZ3 1-263 T157A): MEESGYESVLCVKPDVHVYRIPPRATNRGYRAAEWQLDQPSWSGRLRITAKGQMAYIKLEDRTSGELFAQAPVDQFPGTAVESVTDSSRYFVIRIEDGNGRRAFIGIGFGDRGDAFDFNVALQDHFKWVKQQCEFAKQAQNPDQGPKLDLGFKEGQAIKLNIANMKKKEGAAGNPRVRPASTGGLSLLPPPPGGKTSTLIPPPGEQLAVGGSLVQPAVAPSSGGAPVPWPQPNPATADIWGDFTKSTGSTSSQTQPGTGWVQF
Text: as §1, §2, §3, §4, §5

[4] = target: T3, FLJ38531-derived protein (Homo sapiens, UniProt Q9BVM4); assay: SEC/MS interaction analysis, FLJ38531-derived protein (hypothetical protein BC004360); format: binding; conditions: spin column method; doses of both compound and protein varied
T3 construct: His-tag (N); made in house; host or cells: Escherichia coli BL21star(DE3)pLysS
T3 sequence (Q9BVM4 1-153): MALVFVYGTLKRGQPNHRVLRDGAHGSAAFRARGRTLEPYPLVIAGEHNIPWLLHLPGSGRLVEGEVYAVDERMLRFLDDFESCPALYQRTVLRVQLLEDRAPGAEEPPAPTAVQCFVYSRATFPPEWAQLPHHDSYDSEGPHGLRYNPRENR
Text: as §1, §2, §3, §4, §5

[5] = compound 12.5 μM, protein 10 μM
[6] = compound 62.5 μM, protein 10 μM
[7] = spin column method, doses of both compound and protein varied
[8] = SEC spin column filtrate, spectral intensity increased with doses of compound and protein

Compound: CCN(CC)CCCC(C)Nc1c2ccc(Cl)cc2nc2ccc(OC)cc12 (centres unmarked) [quinacrine]
- spectrum intensity of the compound in the SEC spin column filtrate ([1]; compound 12.5 μM, protein 0 μM): 36421
- spectrum intensity of the compound in the SEC spin column filtrate ([1]; compound 12.5 μM, protein 5 μM): 77607
- spectrum intensity of the compound in the SEC spin column filtrate [1, 5]: 225680
- spectrum intensity of the compound in the SEC spin column filtrate ([1]; compound 12.5 μM, protein 25 μM): 439131
- spectrum intensity of the compound in the SEC spin column filtrate ([1]; compound 25 μM, protein 0 μM): 40978
- spectrum intensity of the compound in the SEC spin column filtrate ([1]; compound 25 μM, protein 5 μM): 125609
- spectrum intensity of the compound in the SEC spin column filtrate ([1]; compound 25 μM, protein 10 μM): 481486
- spectrum intensity of the compound in the SEC spin column filtrate ([1]; compound 25 μM, protein 25 μM): 457713
- spectrum intensity of the compound in the SEC spin column filtrate ([1]; compound 62.5 μM, protein 0 μM): 123977
- spectrum intensity of the compound in the SEC spin column filtrate ([1]; compound 62.5 μM, protein 5 μM): 598920
- spectrum intensity of the compound in the SEC spin column filtrate [1, 6]: 1080431
- spectrum intensity of the compound in the SEC spin column filtrate ([1]; compound 62.5 μM, protein 25 μM): 1854355
- interaction judged from spectrum intensity of the compound in the SEC spin column filtrate (protein fraction eluted from SEC) [1, 7]: concentration-dependent interaction
- FLJ No of the derived protein with which the compound was judged to exhibit a concentration-dependent interaction [2, 8]: FLJ37909; also recorded: FLJ41991

Compound: COc1ccc(C(=O)NCc2cccnc2)cc1C(=O)NCc1cccnc1 [picotamide]
- spectrum intensity of the compound in the SEC spin column filtrate ([3]; compound 12.5 μM, protein 0 μM): 412892
- spectrum intensity of the compound in the SEC spin column filtrate ([3]; compound 12.5 μM, protein 5 μM): 323916
- spectrum intensity of the compound in the SEC spin column filtrate [3, 5]: 294069
- spectrum intensity of the compound in the SEC spin column filtrate ([3]; compound 12.5 μM, protein 15 μM): 237571
- spectrum intensity of the compound in the SEC spin column filtrate ([3]; compound 25 μM, protein 0 μM): 441470
- spectrum intensity of the compound in the SEC spin column filtrate ([3]; compound 25 μM, protein 5 μM): 490309
- spectrum intensity of the compound in the SEC spin column filtrate ([3]; compound 25 μM, protein 10 μM): 647010
- spectrum intensity of the compound in the SEC spin column filtrate ([3]; compound 25 μM, protein 15 μM): 496587
- spectrum intensity of the compound in the SEC spin column filtrate ([3]; compound 62.5 μM, protein 0 μM): 841101
- spectrum intensity of the compound in the SEC spin column filtrate ([3]; compound 62.5 μM, protein 5 μM): 1376939
- spectrum intensity of the compound in the SEC spin column filtrate [3, 6]: 1450464
- spectrum intensity of the compound in the SEC spin column filtrate ([3]; compound 62.5 μM, protein 15 μM): 1862334
- interaction judged from spectrum intensity of the compound in the SEC spin column filtrate (protein fraction eluted from SEC) [3, 7]: concentration-dependent interaction
- FLJ No of the derived protein with which the compound was judged to exhibit a concentration-dependent interaction [2, 8]: FLJ10420

Compound: C=C[C@H]1C[N@@]2CC[C@H]1C[C@@H]2[C@@H](O)c1ccnc2ccccc12 [cinchonine]
- FLJ No of the derived protein with which the compound was judged to exhibit a concentration-dependent interaction [2, 8]: FLJ39553

Compound: Cc1cccc(Nc2ccccc2C(=O)O)c1C [mefenamic acid]
- FLJ No of the derived protein with which the compound was judged to exhibit a concentration-dependent interaction [2, 8]: FLJ35353

Compound: CCn1cc(C(=O)O)c(=O)c2ccc(C)nc21 [nalidixic acid]
- interaction judged from spectrum intensity of the compound in the SEC spin column filtrate (protein fraction eluted from SEC) [4]: concentration-dependent interaction
- FLJ No of the derived protein with which the compound was judged to exhibit a concentration-dependent interaction [2, 8]: FLJ38531

Compound: O=C1CNC(=O)N1 [hydantoin]
- FLJ No of the derived protein with which the compound was judged to exhibit a concentration-dependent interaction [2, 8]: FLJ35914

Compound: COC(=O)Nc1nc2ccc(Sc3ccccc3)cc2[nH]1 [fenbendazole]
- FLJ No of the derived protein with which the compound was judged to exhibit a concentration-dependent interaction [2, 8]: FLJ37909

Compound: COC(=O)[C@H]1[C@H]2C[C@@H]3c4[nH]c5cc(OC)ccc5c4CCN3C[C@H]2C[C@@H](OC(=O)c2cc(OC)c(OC)c(OC)c2)[C@@H]1OC [reserpine]
- FLJ No of the derived protein with which the compound was judged to exhibit a concentration-dependent interaction [2, 8]: FLJ37909

Compound: CC(=O)[C@H]1CC[C@H]2[C@@H]3C=CC4=CC(=O)CC[C@@]4(C)[C@@H]3CC[C@]12C [dydrogesterone]
- FLJ No of the derived protein with which the compound was judged to exhibit a concentration-dependent interaction [2, 8]: FLJ35353

Compound: Cc1c2ccncc2c(C)c2c1[nH]c1ccccc12 [ellipticine]
- FLJ No of the derived protein with which the compound was judged to exhibit a concentration-dependent interaction [2, 8]: FLJ35353

Compound: Cc1cc(C(C)(C)CC(C)(C)C)ccc1OCCOCC[N+](C)(C)Cc1ccccc1.[Cl-] [methylbenzethonium chloride]
- FLJ No of the derived protein with which the compound was judged to exhibit a concentration-dependent interaction [2, 8]: FLJ20571; also recorded: FLJ35353

Compound: Cl.Cl.OCCN1CCN(CCC=C2c3ccccc3Sc3ccc(C(F)(F)F)cc32)CC1 (mixture of isomers) [flupentixol]
- FLJ No of the derived protein with which the compound was judged to exhibit a concentration-dependent interaction [2, 8]: FLJ37909

Compound: CC/C(=C(\c1ccccc1)c1ccc(OCCN(C)C)cc1)c1ccccc1 [tamoxifen]
- FLJ No of the derived protein with which the compound was judged to exhibit a concentration-dependent interaction [2, 8]: FLJ37909

Compound: spiramycin
- FLJ No of the derived protein with which the compound was judged to exhibit a concentration-dependent interaction [2, 8]: FLJ21841

Compound: c1ccc2c(c1)CCCc1cc(NCCN3CCOCC3)nnc1-2 [SR-95639A]
- FLJ No of the derived protein with which the compound was judged to exhibit a concentration-dependent interaction [2, 8]: FLJ36526

Compound: CN1C[C@H](C(=O)N[C@]2(C)O[C@@]3(O)[C@@H]4CCCN4C(=O)[C@H](Cc4ccccc4)N3C2=O)C[C@@H]2c3cccc4[nH]cc(c34)C[C@H]21 [dihydroergotamine]
- FLJ No of the derived protein with which the compound was judged to exhibit a concentration-dependent interaction [2, 8]: FLJ37909

Compound: O=C1CN=C(c2ccccc2)c2cc(Cl)ccc2N1 [nordiazepam]
- FLJ No of the derived protein with which the compound was judged to exhibit a concentration-dependent interaction [2, 8]: FLJ35353

Compound: CC(CN(C)C)CN1c2ccccc2Sc2ccccc21 (centres unmarked) [alimemazine]
- FLJ No of the derived protein with which the compound was judged to exhibit a concentration-dependent interaction [2, 8]: FLJ37909

Compound: CSc1ccc2c(c1)N(CCC1CCCCN1C)c1ccccc1S2 (centres unmarked) [thioridazine]
- FLJ No of the derived protein with which the compound was judged to exhibit a concentration-dependent interaction [2, 8]: FLJ37909

Compound: O=c1[nH]c2ccccc2n1CCCN1CCC(n2c(=O)[nH]c3cc(Cl)ccc32)CC1 [domperidone]
- FLJ No of the derived protein with which the compound was judged to exhibit a concentration-dependent interaction [2, 8]: FLJ20571

Compound: Fc1ccc(C(c2ccc(F)cc2)N2CCN(C/C=C/c3ccccc3)CC2)cc1 [flunarizine]
- FLJ No of the derived protein with which the compound was judged to exhibit a concentration-dependent interaction [2, 8]: FLJ37909

Compound: cyclosporin A
- FLJ No of the derived protein with which the compound was judged to exhibit a concentration-dependent interaction [2]: FLJ23466; also recorded: FLJ11211; also recorded: FLJ37909

Compound: CCOC(=O)Oc1c(OC)cc(C(=O)O[C@@H]2C[C@@H]3CN4CCc5c([nH]c6cc(OC)ccc56)[C@H]4C[C@@H]3[C@H](C(=O)OC)[C@H]2OC)cc1OC [syrosingopine]
- FLJ No of the derived protein with which the compound was judged to exhibit a concentration-dependent interaction [2, 8]: FLJ35353
